This passage reports residual activity results from the kinase profiling compilation of Christmann-Franck et al. (2016).

The residual activity is the signal under treatment as a percentage of the control signal.

Sequence of PLK1 (human) (P53350 whole entry, looked up): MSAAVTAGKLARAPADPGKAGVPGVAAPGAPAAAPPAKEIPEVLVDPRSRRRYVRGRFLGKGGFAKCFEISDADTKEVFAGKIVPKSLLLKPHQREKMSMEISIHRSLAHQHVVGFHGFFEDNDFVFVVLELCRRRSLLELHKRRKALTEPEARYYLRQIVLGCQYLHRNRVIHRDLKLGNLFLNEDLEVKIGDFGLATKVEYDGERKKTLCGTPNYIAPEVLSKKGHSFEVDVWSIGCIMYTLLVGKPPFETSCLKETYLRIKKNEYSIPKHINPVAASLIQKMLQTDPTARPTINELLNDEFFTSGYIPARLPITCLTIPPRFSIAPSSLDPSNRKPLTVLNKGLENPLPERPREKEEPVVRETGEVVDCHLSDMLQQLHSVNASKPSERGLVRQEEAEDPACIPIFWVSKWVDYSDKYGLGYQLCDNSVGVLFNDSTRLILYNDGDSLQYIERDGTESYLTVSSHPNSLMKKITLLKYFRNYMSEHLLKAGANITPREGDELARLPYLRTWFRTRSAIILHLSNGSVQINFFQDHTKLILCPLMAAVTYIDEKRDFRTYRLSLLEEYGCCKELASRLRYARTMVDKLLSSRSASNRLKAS

The first test has as its target CDC42BPA (human) (UniProt Q5VT25). The test can be described thus: radiometric filter-binding kinase assay, Kinase HotSpot. To be noted: compound 0.5 µM; ATP 10 µM.
In the case of `CCn1cnc2c(Nc3cccc(Cl)c3)nc(N[C@@H]3CCCC[C@@H]3N)nc21`, the residual activity worked out at 93.4%.

On to `CN(C)C[C@H]1CCn2c(c(C3=C(c4cn(C)c5ccccc45)C(=O)NC3=O)c3ccccc32)C1`, for which the residual activity stood at 98.1%.

`Cn1nc2c3c(cccc31)C(=O)c1ccccc1-2`: the residual activity amounted to 106%.

A further test has as its target EPHA5 (human) (UniProt P54756). The description is as above. To be noted: compound 0.5 µM; ATP 10 µM.
With `CCn1cnc2c(Nc3cccc(Cl)c3)nc(N[C@@H]3CCCC[C@@H]3N)nc21`, the residual activity amounted to 73.9%.

`CN(C)C[C@H]1CCn2c(c(C3=C(c4cn(C)c5ccccc45)C(=O)NC3=O)c3ccccc32)C1`: the residual activity is 95.1%.

As for `Cn1nc2c3c(cccc31)C(=O)c1ccccc1-2`, the residual activity turned out to be 126%.

The next test concerns the target PLK1 (human) (UniProt P53350). The description is as above. To be noted: compound 0.5 µM; ATP 10 µM.
In the case of `CCn1cnc2c(Nc3cccc(Cl)c3)nc(N[C@@H]3CCCC[C@@H]3N)nc21`, the residual activity amounted to 86%.

Turning to `CN(C)C[C@H]1CCn2c(c(C3=C(c4cn(C)c5ccccc45)C(=O)NC3=O)c3ccccc32)C1`, the residual activity came to 102%.

With `Cn1nc2c3c(cccc31)C(=O)c1ccccc1-2`, the residual activity came out at 97%.

The target of a further test is PDPK1 (human) (UniProt O15530). The description is as above. The settings on record: compound 0.5 µM; ATP 10 µM.
Sequence of PDPK1 (human) (O15530 whole entry, looked up): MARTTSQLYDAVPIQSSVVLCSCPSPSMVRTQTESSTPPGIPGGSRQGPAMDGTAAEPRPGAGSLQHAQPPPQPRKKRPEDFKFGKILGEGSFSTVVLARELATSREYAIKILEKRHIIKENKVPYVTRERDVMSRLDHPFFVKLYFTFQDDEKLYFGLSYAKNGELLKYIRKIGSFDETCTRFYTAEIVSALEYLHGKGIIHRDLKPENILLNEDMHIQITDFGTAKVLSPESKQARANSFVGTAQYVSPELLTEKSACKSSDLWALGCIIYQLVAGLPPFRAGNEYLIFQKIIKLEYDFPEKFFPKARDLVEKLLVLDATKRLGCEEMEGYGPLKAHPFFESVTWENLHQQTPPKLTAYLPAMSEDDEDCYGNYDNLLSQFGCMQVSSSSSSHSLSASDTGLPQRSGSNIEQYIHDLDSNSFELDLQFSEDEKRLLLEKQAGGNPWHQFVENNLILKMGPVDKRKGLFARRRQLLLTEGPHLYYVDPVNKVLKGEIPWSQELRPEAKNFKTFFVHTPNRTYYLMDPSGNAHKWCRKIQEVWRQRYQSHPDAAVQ
Regarding `CCn1cnc2c(Nc3cccc(Cl)c3)nc(N[C@@H]3CCCC[C@@H]3N)nc21`, the residual activity was found to be 94.8%.

In the case of `CN(C)C[C@H]1CCn2c(c(C3=C(c4cn(C)c5ccccc45)C(=O)NC3=O)c3ccccc32)C1`, the residual activity stood at 97%.

Consider `Cn1nc2c3c(cccc31)C(=O)c1ccccc1-2`, for which the residual activity stood at 94.5%.

A further test deals with AKT2 (human) (UniProt P31751). The test is described as above. The settings on record: compound 0.5 µM; ATP 10 µM.
With `CCn1cnc2c(Nc3cccc(Cl)c3)nc(N[C@@H]3CCCC[C@@H]3N)nc21`, the residual activity amounted to 108%.

Regarding `CN(C)C[C@H]1CCn2c(c(C3=C(c4cn(C)c5ccccc45)C(=O)NC3=O)c3ccccc32)C1`, the residual activity stood at 92.6%.

Regarding `Cn1nc2c3c(cccc31)C(=O)c1ccccc1-2`, the residual activity was found to be 98.9%.

For a further test, the target named is GRK4 (human) (UniProt P32298). Described as above. The settings on record: compound 0.5 µM; ATP 10 µM.
Sequence of GRK4 (human) (P32298 whole entry, looked up): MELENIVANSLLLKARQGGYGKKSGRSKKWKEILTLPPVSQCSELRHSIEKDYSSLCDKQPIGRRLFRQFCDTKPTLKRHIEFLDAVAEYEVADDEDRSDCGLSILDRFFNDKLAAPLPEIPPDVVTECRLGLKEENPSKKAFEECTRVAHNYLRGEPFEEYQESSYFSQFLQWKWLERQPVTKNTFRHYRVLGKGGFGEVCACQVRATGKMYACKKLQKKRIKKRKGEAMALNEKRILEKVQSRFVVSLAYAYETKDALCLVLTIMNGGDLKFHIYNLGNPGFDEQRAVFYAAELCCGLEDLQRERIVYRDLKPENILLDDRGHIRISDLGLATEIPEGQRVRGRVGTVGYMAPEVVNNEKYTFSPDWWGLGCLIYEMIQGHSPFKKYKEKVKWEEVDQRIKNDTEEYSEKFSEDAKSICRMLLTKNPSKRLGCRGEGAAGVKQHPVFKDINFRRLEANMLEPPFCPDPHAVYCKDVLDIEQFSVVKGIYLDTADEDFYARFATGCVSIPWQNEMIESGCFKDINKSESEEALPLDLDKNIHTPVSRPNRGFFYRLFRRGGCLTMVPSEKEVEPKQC
In the case of `CCn1cnc2c(Nc3cccc(Cl)c3)nc(N[C@@H]3CCCC[C@@H]3N)nc21`, the residual activity worked out at 96.2%.

As for `CN(C)C[C@H]1CCn2c(c(C3=C(c4cn(C)c5ccccc45)C(=O)NC3=O)c3ccccc32)C1`, the residual activity worked out at 76.4%.

As for `Cn1nc2c3c(cccc31)C(=O)c1ccccc1-2`, the residual activity stood at 105%.

The next test concerns the target MAPK10 (human) (UniProt P53779). Described as above. The settings on record: compound 0.5 µM; ATP 10 µM.
As for `CCn1cnc2c(Nc3cccc(Cl)c3)nc(N[C@@H]3CCCC[C@@H]3N)nc21`, the residual activity stood at 98.8%.

Consider `CN(C)C[C@H]1CCn2c(c(C3=C(c4cn(C)c5ccccc45)C(=O)NC3=O)c3ccccc32)C1`, for which the residual activity is 101%.

With `Cn1nc2c3c(cccc31)C(=O)c1ccccc1-2`, the residual activity was found to be 97.3%.

The target of another test is HCK (human) (UniProt P08631). Described as above. To be noted: compound 0.5 µM; ATP 10 µM.
On to `CCn1cnc2c(Nc3cccc(Cl)c3)nc(N[C@@H]3CCCC[C@@H]3N)nc21`, for which the residual activity stood at 69.6%.

`CN(C)C[C@H]1CCn2c(c(C3=C(c4cn(C)c5ccccc45)C(=O)NC3=O)c3ccccc32)C1`: the residual activity stood at 95.3%.

With `Cn1nc2c3c(cccc31)C(=O)c1ccccc1-2`, the residual activity was determined as 94.6%.

Another test addresses CSNK1A1 (human) (UniProt P48729). The description is as above. The settings on record: compound 0.5 µM; ATP 10 µM.
Turning to `CCn1cnc2c(Nc3cccc(Cl)c3)nc(N[C@@H]3CCCC[C@@H]3N)nc21`, the residual activity came to 98.7%.

`CN(C)C[C@H]1CCn2c(c(C3=C(c4cn(C)c5ccccc45)C(=O)NC3=O)c3ccccc32)C1`: the residual activity was 98.5%.

On to `Cn1nc2c3c(cccc31)C(=O)c1ccccc1-2`, for which the residual activity is 47.8%.

For another test, the target named is STK39 (human) (UniProt Q9UEW8). The description is as above. The settings on record: compound 0.5 µM; ATP 10 µM.
For the compound `CCn1cnc2c(Nc3cccc(Cl)c3)nc(N[C@@H]3CCCC[C@@H]3N)nc21`, the residual activity amounted to 106%.

On to `CN(C)C[C@H]1CCn2c(c(C3=C(c4cn(C)c5ccccc45)C(=O)NC3=O)c3ccccc32)C1`, for which the residual activity came to 102%.

Consider `Cn1nc2c3c(cccc31)C(=O)c1ccccc1-2`, for which the residual activity was 101%.

The next test has as its target EPHA3 (human) (UniProt P29320). The description is as above. To be noted: compound 0.5 µM; ATP 10 µM.
Turning to `CCn1cnc2c(Nc3cccc(Cl)c3)nc(N[C@@H]3CCCC[C@@H]3N)nc21`, the residual activity is 85.7%.

As for `CN(C)C[C@H]1CCn2c(c(C3=C(c4cn(C)c5ccccc45)C(=O)NC3=O)c3ccccc32)C1`, the residual activity came to 99.2%.

Regarding `Cn1nc2c3c(cccc31)C(=O)c1ccccc1-2`, the residual activity turned out to be 93.5%.

The target in another test is RPS6KA2 KD1 KD2 (human) (UniProt Q15349). The test is described as above. To be noted: compound 0.5 µM; ATP 10 µM.
For `CCn1cnc2c(Nc3cccc(Cl)c3)nc(N[C@@H]3CCCC[C@@H]3N)nc21`, the residual activity stood at 45.1%.

Take `CN(C)C[C@H]1CCn2c(c(C3=C(c4cn(C)c5ccccc45)C(=O)NC3=O)c3ccccc32)C1`: the residual activity was 3.57%.

As for `Cn1nc2c3c(cccc31)C(=O)c1ccccc1-2`, the residual activity came out at 93.5%.

For the next test, the target named is CAMKK2 (human) (UniProt Q96RR4). Described as above. The settings on record: compound 0.5 µM; ATP 10 µM.
As to `CCn1cnc2c(Nc3cccc(Cl)c3)nc(N[C@@H]3CCCC[C@@H]3N)nc21`, the residual activity is 86.1%.

In the case of `CN(C)C[C@H]1CCn2c(c(C3=C(c4cn(C)c5ccccc45)C(=O)NC3=O)c3ccccc32)C1`, the residual activity came out at 108%.

Consider `Cn1nc2c3c(cccc31)C(=O)c1ccccc1-2`, for which the residual activity came to 74.9%.

The target of the next test is MAPKAPK5 (human) (UniProt Q8IW41). The description is as above. The settings on record: compound 0.5 µM; ATP 10 µM.
Sequence of MAPKAPK5 (human) (Q8IW41 whole entry, looked up): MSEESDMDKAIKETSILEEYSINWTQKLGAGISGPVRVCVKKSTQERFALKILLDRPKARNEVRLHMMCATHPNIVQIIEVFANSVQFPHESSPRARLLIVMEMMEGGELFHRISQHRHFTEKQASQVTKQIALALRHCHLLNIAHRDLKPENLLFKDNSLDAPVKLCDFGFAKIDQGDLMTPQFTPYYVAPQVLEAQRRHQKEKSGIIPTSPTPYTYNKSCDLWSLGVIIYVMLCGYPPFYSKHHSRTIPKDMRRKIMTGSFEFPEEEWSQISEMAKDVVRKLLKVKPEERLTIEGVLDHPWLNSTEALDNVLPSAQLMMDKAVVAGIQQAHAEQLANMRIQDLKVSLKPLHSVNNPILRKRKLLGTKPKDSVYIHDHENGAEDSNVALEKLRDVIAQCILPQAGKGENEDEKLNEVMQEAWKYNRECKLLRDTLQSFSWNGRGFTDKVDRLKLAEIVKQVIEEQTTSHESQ
For `CCn1cnc2c(Nc3cccc(Cl)c3)nc(N[C@@H]3CCCC[C@@H]3N)nc21`, the residual activity worked out at 98.3%.

In the case of `CN(C)C[C@H]1CCn2c(c(C3=C(c4cn(C)c5ccccc45)C(=O)NC3=O)c3ccccc32)C1`, the residual activity worked out at 95.4%.

Consider `Cn1nc2c3c(cccc31)C(=O)c1ccccc1-2`, for which the residual activity was determined as 94.5%.

For another test, the target named is HIPK4 (human) (UniProt Q8NE63). The test is described as above. To be noted: compound 0.5 µM; ATP 10 µM.
Sequence of HIPK4 (human) (Q8NE63 whole entry, looked up): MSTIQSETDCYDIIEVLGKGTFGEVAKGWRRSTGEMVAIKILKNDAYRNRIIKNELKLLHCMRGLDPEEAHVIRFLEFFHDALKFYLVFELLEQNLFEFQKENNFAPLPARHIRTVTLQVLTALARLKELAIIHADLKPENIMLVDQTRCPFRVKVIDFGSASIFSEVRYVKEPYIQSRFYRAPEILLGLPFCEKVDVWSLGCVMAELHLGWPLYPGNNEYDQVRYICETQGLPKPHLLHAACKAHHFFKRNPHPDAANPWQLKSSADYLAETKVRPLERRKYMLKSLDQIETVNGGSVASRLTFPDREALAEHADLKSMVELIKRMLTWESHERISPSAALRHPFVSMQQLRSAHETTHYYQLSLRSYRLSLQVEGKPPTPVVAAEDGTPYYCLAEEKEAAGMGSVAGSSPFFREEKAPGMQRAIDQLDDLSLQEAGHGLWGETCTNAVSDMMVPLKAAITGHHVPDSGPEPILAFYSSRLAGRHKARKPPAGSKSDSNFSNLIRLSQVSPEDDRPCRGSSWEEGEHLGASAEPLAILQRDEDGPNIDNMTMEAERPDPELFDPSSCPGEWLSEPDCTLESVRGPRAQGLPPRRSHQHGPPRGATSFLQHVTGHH
For the compound `CCn1cnc2c(Nc3cccc(Cl)c3)nc(N[C@@H]3CCCC[C@@H]3N)nc21`, the residual activity is 88.4%.

As for `CN(C)C[C@H]1CCn2c(c(C3=C(c4cn(C)c5ccccc45)C(=O)NC3=O)c3ccccc32)C1`, the residual activity amounted to 95.7%.

As to `Cn1nc2c3c(cccc31)C(=O)c1ccccc1-2`, the residual activity was 102%.

The target in a further test is MAP3K8 (human) (UniProt P41279). The test is described as above. The settings on record: compound 0.5 µM; ATP 10 µM.
Sequence of MAP3K8 (human) (P41279 whole entry, looked up): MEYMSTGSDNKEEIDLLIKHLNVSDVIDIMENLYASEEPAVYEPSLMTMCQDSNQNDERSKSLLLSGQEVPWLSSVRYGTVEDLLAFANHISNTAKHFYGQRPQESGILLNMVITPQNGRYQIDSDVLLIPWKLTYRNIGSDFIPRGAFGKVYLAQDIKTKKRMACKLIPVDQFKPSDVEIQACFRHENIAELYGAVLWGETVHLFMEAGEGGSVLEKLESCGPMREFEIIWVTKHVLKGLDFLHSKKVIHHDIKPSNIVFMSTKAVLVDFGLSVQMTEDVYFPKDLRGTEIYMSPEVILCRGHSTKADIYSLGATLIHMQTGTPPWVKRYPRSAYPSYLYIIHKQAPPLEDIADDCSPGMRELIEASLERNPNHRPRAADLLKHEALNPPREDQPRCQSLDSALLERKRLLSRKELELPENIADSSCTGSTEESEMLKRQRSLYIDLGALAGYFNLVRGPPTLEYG
`CCn1cnc2c(Nc3cccc(Cl)c3)nc(N[C@@H]3CCCC[C@@H]3N)nc21`: the residual activity came to 93.6%.

For the compound `CN(C)C[C@H]1CCn2c(c(C3=C(c4cn(C)c5ccccc45)C(=O)NC3=O)c3ccccc32)C1`, the residual activity came out at 95%.

With `Cn1nc2c3c(cccc31)C(=O)c1ccccc1-2`, the residual activity amounted to 94.3%.

Another test has as its target PRKACA (human) (UniProt P17612). The description is as above. The settings on record: compound 0.5 µM; ATP 10 µM.
In the case of `CCn1cnc2c(Nc3cccc(Cl)c3)nc(N[C@@H]3CCCC[C@@H]3N)nc21`, the residual activity is 102%.

For the compound `CN(C)C[C@H]1CCn2c(c(C3=C(c4cn(C)c5ccccc45)C(=O)NC3=O)c3ccccc32)C1`, the residual activity was 87.2%.

On to `Cn1nc2c3c(cccc31)C(=O)c1ccccc1-2`, for which the residual activity was determined as 104%.

The target of a further test is PHKG2 (human) (UniProt P15735). Described as above. The settings on record: compound 0.5 µM; ATP 10 µM.
Sequence of PHKG2 (human) (P15735 whole entry, looked up): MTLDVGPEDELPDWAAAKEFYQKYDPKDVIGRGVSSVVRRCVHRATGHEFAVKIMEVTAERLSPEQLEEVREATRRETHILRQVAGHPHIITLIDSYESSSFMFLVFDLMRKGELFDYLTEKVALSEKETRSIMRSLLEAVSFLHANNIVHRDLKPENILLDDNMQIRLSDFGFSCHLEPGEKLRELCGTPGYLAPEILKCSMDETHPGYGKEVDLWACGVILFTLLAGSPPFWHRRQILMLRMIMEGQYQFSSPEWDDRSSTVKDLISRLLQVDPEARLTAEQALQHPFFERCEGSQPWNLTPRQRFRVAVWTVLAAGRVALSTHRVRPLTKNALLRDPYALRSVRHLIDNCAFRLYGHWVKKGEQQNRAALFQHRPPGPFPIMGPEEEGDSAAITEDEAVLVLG
As for `CCn1cnc2c(Nc3cccc(Cl)c3)nc(N[C@@H]3CCCC[C@@H]3N)nc21`, the residual activity was determined as 85.6%.

In the case of `CN(C)C[C@H]1CCn2c(c(C3=C(c4cn(C)c5ccccc45)C(=O)NC3=O)c3ccccc32)C1`, the residual activity was found to be 104%.

As to `Cn1nc2c3c(cccc31)C(=O)c1ccccc1-2`, the residual activity came to 95.4%.

For another test, the target named is NTRK1 (human) (UniProt P04629). The description is as above. The settings on record: compound 0.5 µM; ATP 10 µM.
Sequence of NTRK1 (human) (P04629 whole entry, looked up): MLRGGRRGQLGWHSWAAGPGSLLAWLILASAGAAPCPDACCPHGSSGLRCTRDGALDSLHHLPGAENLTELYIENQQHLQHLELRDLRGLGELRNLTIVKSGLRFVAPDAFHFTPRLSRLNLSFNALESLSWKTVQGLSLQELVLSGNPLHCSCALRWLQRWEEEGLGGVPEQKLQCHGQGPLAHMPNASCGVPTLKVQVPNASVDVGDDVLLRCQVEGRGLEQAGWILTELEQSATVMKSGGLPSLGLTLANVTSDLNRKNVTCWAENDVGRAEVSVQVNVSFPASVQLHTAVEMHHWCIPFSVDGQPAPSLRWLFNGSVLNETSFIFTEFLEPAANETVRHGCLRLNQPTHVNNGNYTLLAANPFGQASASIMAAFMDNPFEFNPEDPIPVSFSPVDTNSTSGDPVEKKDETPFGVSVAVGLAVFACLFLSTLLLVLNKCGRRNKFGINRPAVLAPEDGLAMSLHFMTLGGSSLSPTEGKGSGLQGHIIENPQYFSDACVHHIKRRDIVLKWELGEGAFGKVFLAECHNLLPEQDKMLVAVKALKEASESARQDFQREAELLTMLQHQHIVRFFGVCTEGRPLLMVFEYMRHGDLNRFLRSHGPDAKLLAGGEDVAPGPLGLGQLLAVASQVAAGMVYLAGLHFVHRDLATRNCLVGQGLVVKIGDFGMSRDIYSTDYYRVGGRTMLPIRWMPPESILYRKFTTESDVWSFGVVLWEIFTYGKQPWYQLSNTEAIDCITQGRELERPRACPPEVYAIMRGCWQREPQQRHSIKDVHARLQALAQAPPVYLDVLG
With `CCn1cnc2c(Nc3cccc(Cl)c3)nc(N[C@@H]3CCCC[C@@H]3N)nc21`, the residual activity was found to be 92.9%.

For `CN(C)C[C@H]1CCn2c(c(C3=C(c4cn(C)c5ccccc45)C(=O)NC3=O)c3ccccc32)C1`, the residual activity amounted to 108%.

As to `Cn1nc2c3c(cccc31)C(=O)c1ccccc1-2`, the residual activity was found to be 95%.

The target in a further test is NLK (human) (UniProt Q9UBE8). The description is as above. The settings on record: compound 0.5 µM; ATP 10 µM.
Sequence of NLK (human) (Q9UBE8 whole entry, looked up): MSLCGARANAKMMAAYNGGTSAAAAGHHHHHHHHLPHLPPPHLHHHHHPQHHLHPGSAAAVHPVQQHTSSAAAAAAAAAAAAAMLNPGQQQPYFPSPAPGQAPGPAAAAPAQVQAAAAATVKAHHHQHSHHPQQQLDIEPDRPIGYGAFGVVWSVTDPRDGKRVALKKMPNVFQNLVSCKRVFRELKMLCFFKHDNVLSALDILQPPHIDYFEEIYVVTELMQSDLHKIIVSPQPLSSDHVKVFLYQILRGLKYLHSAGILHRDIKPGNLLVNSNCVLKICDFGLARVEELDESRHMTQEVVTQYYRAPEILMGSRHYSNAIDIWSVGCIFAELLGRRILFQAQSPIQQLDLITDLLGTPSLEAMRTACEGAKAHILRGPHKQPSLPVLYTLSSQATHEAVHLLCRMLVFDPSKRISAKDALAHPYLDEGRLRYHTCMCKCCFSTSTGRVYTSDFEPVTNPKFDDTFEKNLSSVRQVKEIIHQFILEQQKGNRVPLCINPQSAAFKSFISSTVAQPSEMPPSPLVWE
With `CCn1cnc2c(Nc3cccc(Cl)c3)nc(N[C@@H]3CCCC[C@@H]3N)nc21`, the residual activity was 90.8%.

Regarding `CN(C)C[C@H]1CCn2c(c(C3=C(c4cn(C)c5ccccc45)C(=O)NC3=O)c3ccccc32)C1`, the residual activity came out at 101%.

Regarding `Cn1nc2c3c(cccc31)C(=O)c1ccccc1-2`, the residual activity was determined as 100%.

The next test concerns the target ADRBK1 (human) (UniProt P25098). The description is as above. To be noted: compound 0.5 µM; ATP 10 µM.
On to `CCn1cnc2c(Nc3cccc(Cl)c3)nc(N[C@@H]3CCCC[C@@H]3N)nc21`, for which the residual activity is 96.5%.

Turning to `CN(C)C[C@H]1CCn2c(c(C3=C(c4cn(C)c5ccccc45)C(=O)NC3=O)c3ccccc32)C1`, the residual activity turned out to be 103%.

On to `Cn1nc2c3c(cccc31)C(=O)c1ccccc1-2`, for which the residual activity amounted to 103%.
